Laboratory results as given in ChEMBL document CHEMBL1201862, “PubChem BioAssay data set” (2004).
Active and inactive are the calls of the source. Rule as the data show it, for most assays here: actives have a measured EC50 and inactives only a lower limit.

Key:
[1] = cytotoxicity in HPDE-C7 cells, cell-based, fluorescence, HTS (AID 430); type: functional; conditions: Homo sapiens
[2] = cytotoxicity in KRAS-transformed pancreatic duct cells, primary screen, cell-based, fluorescence, HTS (AID 431); type: functional; conditions: Homo sapiens;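 also: cell line used: HPDE-C7K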
[3] = biological target: DNA repair and recombination protein RAD54-like (Homo sapiens, UniProt Q92698); experiment: inhibitors of human RAD54 branch migration, confirmation, biochemical, fluorescence, cherry-picked samples, dose series (AID 651657); type: functional
Sequence of DNA repair and recombination protein RAD54-like (Q92698 whole entry): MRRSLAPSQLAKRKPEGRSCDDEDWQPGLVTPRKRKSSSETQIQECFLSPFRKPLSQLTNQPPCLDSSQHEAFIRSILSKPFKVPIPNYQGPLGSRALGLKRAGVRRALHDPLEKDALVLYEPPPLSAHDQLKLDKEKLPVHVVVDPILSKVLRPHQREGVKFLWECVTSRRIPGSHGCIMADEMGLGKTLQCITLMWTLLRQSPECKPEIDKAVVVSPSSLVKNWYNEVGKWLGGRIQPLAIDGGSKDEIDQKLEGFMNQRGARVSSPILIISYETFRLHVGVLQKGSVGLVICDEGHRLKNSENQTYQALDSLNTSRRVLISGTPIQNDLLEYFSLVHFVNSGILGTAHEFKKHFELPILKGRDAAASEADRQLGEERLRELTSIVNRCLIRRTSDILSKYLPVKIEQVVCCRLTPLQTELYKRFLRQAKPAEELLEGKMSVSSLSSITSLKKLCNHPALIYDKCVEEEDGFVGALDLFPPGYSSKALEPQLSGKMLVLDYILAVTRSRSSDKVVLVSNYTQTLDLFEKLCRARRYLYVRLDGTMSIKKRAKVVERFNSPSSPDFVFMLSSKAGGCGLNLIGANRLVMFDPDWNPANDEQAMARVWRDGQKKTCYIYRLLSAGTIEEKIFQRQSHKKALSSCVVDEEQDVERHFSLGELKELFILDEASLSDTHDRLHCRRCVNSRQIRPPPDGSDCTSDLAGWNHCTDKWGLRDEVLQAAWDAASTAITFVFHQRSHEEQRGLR

[4] = biological target: Epstein-Barr nuclear antigen 1 (Epstein-Barr virus (strain B95-8) (HHV-4) (Human herpesvirus 4), UniProt P03211); experiment: EBNA-1 inhibitors, dose response, biochemical, fluorescence polarization, 1536-well (AID 2381); set-up: species or system human gammaherpesvirus 4;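 also: fluorescence polarization of a Cy5 DNA probe bound by EBNA-1 protein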
Sequence of Epstein-Barr nuclear antigen 1 (P03211 whole entry): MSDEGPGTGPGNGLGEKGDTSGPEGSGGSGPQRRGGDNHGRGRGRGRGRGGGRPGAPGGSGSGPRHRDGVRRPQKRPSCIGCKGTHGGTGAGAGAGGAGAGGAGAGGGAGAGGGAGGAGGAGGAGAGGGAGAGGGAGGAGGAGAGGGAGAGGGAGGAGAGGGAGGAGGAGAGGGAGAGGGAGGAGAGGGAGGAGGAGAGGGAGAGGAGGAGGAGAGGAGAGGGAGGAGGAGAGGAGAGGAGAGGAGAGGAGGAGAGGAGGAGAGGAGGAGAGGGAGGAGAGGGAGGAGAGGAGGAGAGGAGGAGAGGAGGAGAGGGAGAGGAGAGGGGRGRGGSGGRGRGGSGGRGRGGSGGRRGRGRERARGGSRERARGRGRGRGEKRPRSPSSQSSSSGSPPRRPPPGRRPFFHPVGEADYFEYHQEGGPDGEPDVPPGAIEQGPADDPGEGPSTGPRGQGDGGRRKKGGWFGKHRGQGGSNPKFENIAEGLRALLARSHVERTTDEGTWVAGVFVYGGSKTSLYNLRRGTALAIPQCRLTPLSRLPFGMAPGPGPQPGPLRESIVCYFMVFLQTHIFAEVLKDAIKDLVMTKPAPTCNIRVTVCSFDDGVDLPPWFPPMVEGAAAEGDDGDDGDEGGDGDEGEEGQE

[5] = biological target: Lytic switch protein BZLF1 (Epstein-Barr virus (strain B95-8) (HHV-4) (Human herpesvirus 4), UniProt P03206); experiment: EBV ZTA inhibitors, dose response, counter-screen for EBNA-1 inhibitor project, biochemical, fluorescence polarization, Epstein-Barr virus, 1536-well (AID 2377); set-up: species or system human gammaherpesvirus 4;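 also: fluorescence polarization of Cy5-labelled ZRE DNA probe bound by purified Zta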
Sequence of Lytic switch protein BZLF1 (P03206 whole entry): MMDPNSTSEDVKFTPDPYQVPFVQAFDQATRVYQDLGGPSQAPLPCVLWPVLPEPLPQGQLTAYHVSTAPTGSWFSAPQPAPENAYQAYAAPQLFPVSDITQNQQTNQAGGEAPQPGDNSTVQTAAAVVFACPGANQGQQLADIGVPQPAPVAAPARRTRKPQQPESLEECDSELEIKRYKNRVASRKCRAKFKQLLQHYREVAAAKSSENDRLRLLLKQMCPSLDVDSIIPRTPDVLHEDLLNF

[6] = A cytotoxicity screen of small molecule inhibitors of the PhoP region in Salmonella typhi identified in the primary screen. [Related pubchem assays: 1850, 1864, 1985 ]; type: functional
[7] = biological target: T1, Polyadenylate-binding protein 1 (Homo sapiens, UniProt P11940); experiment: PABP1 MLLE–PAM2 interaction inhibitors, dose response, miRNA deadenylation inhibitor project, biochemical, fluorescence polarization, Cy5-PAM2 peptide, secondary (AID 602260); type: functional; conditions: read-out: IC50_Mean
T1 sequence (P11940 whole entry): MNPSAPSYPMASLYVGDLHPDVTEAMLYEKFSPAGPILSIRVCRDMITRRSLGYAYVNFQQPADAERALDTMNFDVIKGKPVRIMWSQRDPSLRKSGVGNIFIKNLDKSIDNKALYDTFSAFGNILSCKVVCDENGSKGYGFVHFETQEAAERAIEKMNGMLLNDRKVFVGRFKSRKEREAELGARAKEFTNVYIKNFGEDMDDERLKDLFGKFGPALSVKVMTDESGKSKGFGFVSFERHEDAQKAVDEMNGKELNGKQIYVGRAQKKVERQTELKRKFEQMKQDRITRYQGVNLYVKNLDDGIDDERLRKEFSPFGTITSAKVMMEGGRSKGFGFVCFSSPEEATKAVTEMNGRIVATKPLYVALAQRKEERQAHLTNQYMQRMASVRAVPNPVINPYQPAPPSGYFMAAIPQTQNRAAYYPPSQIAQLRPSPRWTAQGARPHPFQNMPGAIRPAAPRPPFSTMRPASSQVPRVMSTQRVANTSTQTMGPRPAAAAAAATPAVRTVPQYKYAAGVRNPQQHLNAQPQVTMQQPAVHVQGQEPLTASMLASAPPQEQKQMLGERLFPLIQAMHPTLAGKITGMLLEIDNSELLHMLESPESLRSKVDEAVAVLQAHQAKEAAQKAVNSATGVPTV

[8] = biological target: T1, Polyadenylate-binding protein 1; experiment: PABP1 MLLE–PAM2 binding inhibitor potency, dose response, biochemical, fluorescence polarization, FITC-PAM2 peptide (AID 602259); type: functional; conditions: read-out: IC50_Mean
[9] = inhibitors of firefly luciferase expression or activity, dose response, H4 neuroglioma cells, luminescence (AID 1990); type: functional, cell-based
[10] = luciferase reporter signal reduction – luminescence, H4-C neuroglioblastoma cells, dose response (AID 2458); type: functional, cell-based;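 also: H4 neuroglioblastoma cells stably carrying a luciferase reporter gene fusion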
BJ [11] = experiment: cytotoxicity toward BJ-TERT fibroblasts, dose response, cell-based, RAS-independent, luminescence (AID 1933); type: functional; conditions: Homo sapiens
cells = type: functional, cell-based
[12] = Luminescence Cell-Based Dose Response HTS to Identify Inhibitors of 5'UTR Stem-Loop Driven Prion Protein mRNA Translation in H4 Neuroglioblastoma Cells. [Related pubchem assays: 1827 (Project Summary), 1813 (Primary HTS)]; type: functional
[13] = inhibitors of SNCA 5'UTR-driven reporter translation, confirmation, H4 neuroglioma cells, luminescence (AID 1988); type: functional, cell-based
BJ [14] = experiment: cells; type: functional, cell-based; conditions: Homo sapiens
[15] = Luminescence-based dose response cell-based high throughput screening assay for cytotoxic compounds using the IEC-6 intestinal epithelial cell line. [Related pubchem assays: 1858 (Summary AID.), 1825 (Counterscreen.), 1907 (Confirmation screen.)]; type: functional
BJ [16] = experiment: cytotoxicity toward BJ-TERT-LT-ST fibroblasts, dose response, cell-based, RAS-independent, luminescence (AID 1935); type: functional; conditions: Homo sapiens;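 also: BJ fibroblasts immortalized with TERT plus LT and ST oncogenes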
[17] = cytotoxicity toward DRD oncogenic fibroblasts, dose response, cell-based, non-viral oncogenic, luminescence (AID 1934); type: functional; conditions: Homo sapiens
[18] = inhibitors of SNCA 5'UTR-driven translation, confirmation, luminescence, H4 neuroglioblastoma cells, dose confirmation (AID 2454); type: functional, cell-based;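 also: H4 neuroglioblastoma cells carrying an alpha-synuclein 5'UTR luciferase reporter; potency for inhibition of the luciferase signal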
BJ [19] = experiment: cytotoxicity toward Ras-transformed BJeLR fibroblasts, dose response, cell-based, alamar blue fluorescence, cherrypicked samples (AID 2631); type: functional; conditions: Homo sapiens;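 also: confirmatory dose-response assay in RAS-dependent BJ fibroblasts engineered with TERT, LT and ST, with cytotoxicity read by fluorescence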
[20] = biological target: T2, Mannose-6-phosphate isomerase (Homo sapiens, UniProt P34949); experiment: inhibitors of human PMI, primary screen, biochemical, fluorescence intensity, coupled assay (AID 1209)
T2 sequence (P34949 whole entry): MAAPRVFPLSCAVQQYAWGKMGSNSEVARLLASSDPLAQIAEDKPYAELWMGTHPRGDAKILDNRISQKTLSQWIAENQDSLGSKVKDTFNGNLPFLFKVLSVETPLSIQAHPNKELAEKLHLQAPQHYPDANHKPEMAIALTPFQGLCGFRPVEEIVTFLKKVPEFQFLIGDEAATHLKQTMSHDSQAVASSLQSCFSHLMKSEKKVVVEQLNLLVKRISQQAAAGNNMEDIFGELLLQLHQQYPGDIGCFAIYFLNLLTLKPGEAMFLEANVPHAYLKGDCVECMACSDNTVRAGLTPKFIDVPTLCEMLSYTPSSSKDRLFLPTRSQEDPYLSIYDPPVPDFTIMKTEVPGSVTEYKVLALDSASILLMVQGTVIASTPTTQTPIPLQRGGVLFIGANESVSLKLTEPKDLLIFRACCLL

[21] = biological target: T2, Mannose-6-phosphate isomerase; experiment: human PMI inhibitors, high substrate, primary screen, biochemical, fluorescence intensity, high mannose 6-phosphate (AID 1220)
[22] = biological target: T3, Replicative DNA helicase DnaB (Mycobacterium tuberculosis, UniProt P9WMR3); experiment: DnaB intein splicing inhibitors, dose response, biochemical, cell-free fluorescence (AID 449749); type: functional
T3 sequence (P9WMR3 whole entry): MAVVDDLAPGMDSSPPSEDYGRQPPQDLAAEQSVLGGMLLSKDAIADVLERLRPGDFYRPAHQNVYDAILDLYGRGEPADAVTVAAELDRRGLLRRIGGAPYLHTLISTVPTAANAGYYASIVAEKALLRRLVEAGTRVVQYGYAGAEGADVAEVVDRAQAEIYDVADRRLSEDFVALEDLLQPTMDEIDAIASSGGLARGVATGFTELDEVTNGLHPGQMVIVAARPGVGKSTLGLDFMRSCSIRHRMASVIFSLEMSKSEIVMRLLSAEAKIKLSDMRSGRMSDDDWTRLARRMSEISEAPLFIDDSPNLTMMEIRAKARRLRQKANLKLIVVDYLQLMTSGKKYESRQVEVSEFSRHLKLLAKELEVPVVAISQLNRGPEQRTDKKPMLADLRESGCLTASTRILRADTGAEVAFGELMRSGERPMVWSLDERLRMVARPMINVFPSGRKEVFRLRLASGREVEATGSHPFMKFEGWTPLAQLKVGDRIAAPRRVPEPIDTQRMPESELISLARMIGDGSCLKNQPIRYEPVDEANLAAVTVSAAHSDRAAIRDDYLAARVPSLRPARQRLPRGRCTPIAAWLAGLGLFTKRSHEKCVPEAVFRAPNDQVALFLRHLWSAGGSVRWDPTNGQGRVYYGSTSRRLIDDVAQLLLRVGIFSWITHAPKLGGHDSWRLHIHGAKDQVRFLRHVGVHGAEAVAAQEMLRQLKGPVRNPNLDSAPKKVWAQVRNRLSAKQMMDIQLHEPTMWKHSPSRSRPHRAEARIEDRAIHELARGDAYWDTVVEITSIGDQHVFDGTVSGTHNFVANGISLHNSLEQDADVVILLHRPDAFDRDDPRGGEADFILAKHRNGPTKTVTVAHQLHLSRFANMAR

Protein RecA = biological target: T4, Protein RecA (Mycobacterium tuberculosis, UniProt P9WHJ3); experiment: Fluorescence Cell-Free Homogeneous Dose Retest to Identify Inhibitors of RecA-Intein Splicing Activity. [Related pubchem assays (depositor defined):AID2097, AID2223, AID489010, AID492950]; type: functional
T4 sequence (P9WHJ3 whole entry): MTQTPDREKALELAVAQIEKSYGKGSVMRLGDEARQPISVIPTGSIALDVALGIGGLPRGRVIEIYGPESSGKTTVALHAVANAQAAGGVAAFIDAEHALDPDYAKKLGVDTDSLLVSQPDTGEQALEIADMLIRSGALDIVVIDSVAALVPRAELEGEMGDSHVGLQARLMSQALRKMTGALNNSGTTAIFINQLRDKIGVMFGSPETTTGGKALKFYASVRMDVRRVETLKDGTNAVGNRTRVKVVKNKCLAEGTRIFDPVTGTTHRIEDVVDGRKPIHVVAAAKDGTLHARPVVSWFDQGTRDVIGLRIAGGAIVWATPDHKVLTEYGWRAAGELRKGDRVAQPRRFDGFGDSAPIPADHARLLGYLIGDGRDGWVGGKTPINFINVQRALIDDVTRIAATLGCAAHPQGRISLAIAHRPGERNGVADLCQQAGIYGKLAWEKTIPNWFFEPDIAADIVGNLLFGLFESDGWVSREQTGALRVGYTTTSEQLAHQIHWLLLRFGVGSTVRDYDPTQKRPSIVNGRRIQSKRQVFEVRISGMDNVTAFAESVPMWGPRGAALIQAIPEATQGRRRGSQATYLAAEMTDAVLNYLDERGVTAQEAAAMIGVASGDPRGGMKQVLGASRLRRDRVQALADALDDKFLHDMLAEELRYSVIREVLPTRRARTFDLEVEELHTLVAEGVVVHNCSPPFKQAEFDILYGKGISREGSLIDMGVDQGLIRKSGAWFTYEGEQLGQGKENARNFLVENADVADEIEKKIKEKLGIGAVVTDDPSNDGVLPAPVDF

## c1ccc2c(c1)oc1c(Nc3ccc(CN4CCOCC4)cc3)ncnc12
[1]
  EC50: 12.8 µM (active)
[2]
  EC50: 15.2 µM (active)
[3]
  AC50: 65.5 µM (active)

## Cc1ccccc1N(C(=O)c1snc(C(N)=O)c1N)C(C(=O)NCC1CCCO1)c1ccc(N(C)C)cc1 (stereo unspecified)
[4]
  IC50: 13.6 µM (not active)
[5]
  IC50: > 111 µM (not active)

## CC1CCCC(C)N1S(=O)(=O)c1ccc(NC(=O)CCn2cnc3ccccc3c2=O)cc1 (stereo unspecified)
[4]
  IC50: 16.4 µM (not active)
[5]
  IC50: > 111 µM (not active)

## O=C(NC(=S)Nc1ccc(S(=O)(=O)Nc2nccs2)cc1)c1cccnc1
[6]
  EC50: > 50 µM (active)
[7]
  IC50: > 66 µM (inactive)
[8]
  IC50: > 66 µM (inactive)

## O=C(NCCOc1cccnc1)c1ccc(OC2CCN(Cc3ccccn3)CC2)cc1
[9]
  EC50: 0.158 µM (active)
[10]
  EC50: 0.821 µM (active)
BJ [11]
  EC50: 78.3 µM (active)
cells
  EC50: 0.577 µM (active)
[12]
  EC50: 0.202 µM (inconclusive)
[13]
  EC50: < 0.1 µM (active)
BJ [14]
  EC50: 0.334 µM (inconclusive)
[15]
  IC50: 0.0533 µM (active)
BJ [16]
  EC50: 0.543 µM (inconclusive)
[17]
  EC50: 3.96 µM (active)
[18]
  EC50: 0.623 µM (active)
BJ [19]
  EC50: 0.254 µM (active)

## O=[N+]([O-])c1cccc(/N=C/C2=C(O)c3ccccc3CC2)c1
[20]
  IC50: 10.3 µM (active)
[21]
  IC50: > 50 µM (not active)
[22]
  AC50: > 380 µM (inactive)
Protein RecA
  EC50: 10.6 µM (active)
